# According to ChEMBL document CHEMBL1201862, “PubChem BioAssay data set” (2004):
#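 Compound exposure: 48 hours, 5 concentrations, 96-well plates. Here, GI50 denotes the concentration required for 50% inhibition of growth.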 Active and inactive are the calls of the source. Rule as the data show it: active = GI50 up to about 1.1 µM and inactive = higher.
# How the values were obtained:
# Assay in all cases: growth of human tumour cells (NCI), 48 h
# COLO 205 = system: COLO 205
# SK-MEL-5 = system: SK-MEL-5
# HCT-15 = system: HCT-15
# SK-MEL-2 = system: SK-MEL-2
# NCI/ADR-RES = system: NCI/ADR-RES
# UO-31 = system: UO-31
# HL-60 = system: HL-60
# PC-3 = system: PC-3
# KM12 = system: KM12
# IGROV-1 = system: IGROV-1
# SNB-75 = system: SNB-75
# HCT-116 = system: HCT-116
# MOLT-4 = system: MOLT-4
# UACC-62 = system: UACC-62
# U-251 = system: U-251
# A549 = system: A549
# HOP-62 = system: HOP-62
# SW-620 = system: SW-620
# HCC 2998 = system: HCC 2998
# SNB-19 = system: SNB-19
# TK-10 = system: TK-10
# NCI-H226 = system: NCI-H226
# HOP-92 = system: HOP-92
# A498 = system: A498
# DU-145 = system: DU-145
# 786-0 = system: 786-0
# MCF7 = system: MCF7
# NCI-H460 = system: NCI-H460
# SK-OV-3 = system: SK-OV-3
# RXF 393 = system: RXF 393
# CAKI-1 = system: CAKI-1
# T47D = system: T47D
# SF-268 = system: SF-268
# SF-539 = system: SF-539
# MDA-MB-435 = system: MDA-MB-435
# SF-295 = system: SF-295
# NCI-H23 = system: NCI-H23
# HT-29 = system: HT-29
# ACHN = system: ACHN
# MDA-MB-231 = system: MDA-MB-231
# OVCAR-8 = system: OVCAR-8
# OVCAR-3 = system: OVCAR-3
# OVCAR-5 = system: OVCAR-5
# SN12C = system: SN12C
# M14 = system: M14
# NCI-H522 = system: NCI-H522
# MDA-N = system: MDA-N
# Malme-3M = system: Malme-3M
# OVCAR-4 = system: OVCAR-4
# SK-MEL-28 = system: SK-MEL-28
# UACC-257 = system: UACC-257
# CCRF-CEM = system: CCRF-CEM
# LOX IMVI = system: LOX IMVI
# EKVX = system: EKVX
# K562 = system: K562
# RPMI-8226 = system: RPMI-8226
# SR = system: SR
structure (smiles),measurement,setting,value
CN1C/C(=C\c2ccccc2[N+](=O)[O-])C(=O)/C(=C/c2ccccc2[N+](=O)[O-])C1,GI50,COLO 205,0.164 µM (active)
same,GI50,SK-MEL-5,1.32 µM (inactive)
same,GI50,HCT-15,0.251 µM
same,GI50,SK-MEL-2,2.09 µM (inactive)
same,GI50,NCI/ADR-RES,1.55 µM (inactive)
same,GI50,UO-31,0.373 µM (active)
same,GI50,HL-60,0.0796 µM (active)
same,GI50,PC-3,1.14 µM (inactive)
same,GI50,KM12,1.24 µM (inactive)
same,GI50,IGROV-1,0.442 µM (active)
same,GI50,SNB-75,1.86 µM (inactive)
same,GI50,HCT-116,0.215 µM (active)
same,GI50,MOLT-4,0.192 µM (active)
same,GI50,UACC-62,1.31 µM (inactive)
same,GI50,U-251,1.7 µM (inactive)
same,GI50,A549,3.43 µM (inactive)
same,GI50,HOP-62,2.95 µM (inactive)
same,GI50,SW-620,0.173 µM (active)
same,GI50,HCC 2998,1.45 µM (inactive)
same,GI50,SNB-19,6.1 µM (inactive)
same,GI50,TK-10,0.893 µM (active)
same,GI50,NCI-H226,3.09 µM (inactive)
same,GI50,HOP-92,1.09 µM (active)
same,GI50,A498,1.93 µM (inactive)
same,GI50,DU-145,1.51 µM (inactive)
same,GI50,786-0,0.192 µM (active)
same,GI50,MCF7,0.408 µM (active)
same,GI50,NCI-H460,2.57 µM (inactive)
same,GI50,SK-OV-3,2.75 µM (inactive)
CNc1ncnc2c1nc(NC1CCCC1)n2C1OC(CO)C(O)C1O (stereo not drawn),GI50,RXF 393,> 100 µM (inactive)
same,GI50,COLO 205,> 100 µM (inactive)
same,GI50,CAKI-1,> 100 µM (inactive)
same,GI50,T47D,> 100 µM (inactive)
same,GI50,SF-268,> 100 µM (inactive)
same,GI50,SF-539,> 100 µM (inactive)
same,GI50,MDA-MB-435,> 100 µM (inactive)
same,GI50,SK-MEL-5,> 100 µM (inactive)
same,GI50,HCT-15,> 100 µM
same,GI50,SK-MEL-2,> 100 µM (inactive)
same,GI50,SF-295,> 100 µM (inactive)
same,GI50,NCI/ADR-RES,> 100 µM (inactive)
same,GI50,UO-31,> 100 µM (inactive)
same,GI50,NCI-H23,> 100 µM (inactive)
same,GI50,PC-3,> 100 µM (inactive)
same,GI50,KM12,> 100 µM (inactive)
same,GI50,HT-29,> 100 µM (inactive)
same,GI50,ACHN,> 100 µM (inactive)
same,GI50,MDA-MB-231,> 100 µM (inactive)
same,GI50,HCT-116,> 100 µM (inactive)
same,GI50,OVCAR-8,> 100 µM (inactive)
same,GI50,MOLT-4,> 100 µM (inactive)
same,GI50,UACC-62,> 100 µM (inactive)
same,GI50,U-251,> 100 µM (inactive)
same,GI50,OVCAR-3,> 100 µM (inactive)
same,GI50,A549,> 100 µM (inactive)
same,GI50,HOP-62,> 100 µM (inactive)
same,GI50,OVCAR-5,> 100 µM (inactive)
same,GI50,SW-620,> 100 µM (inactive)
same,GI50,HCC 2998,> 100 µM (inactive)
same,GI50,SN12C,> 100 µM (inactive)
same,GI50,SNB-19,> 100 µM (inactive)
same,GI50,TK-10,> 100 µM (inactive)
same,GI50,M14,> 100 µM (inactive)
same,GI50,NCI-H522,> 100 µM (inactive)
same,GI50,HOP-92,> 100 µM (inactive)
same,GI50,MDA-N,> 100 µM (inactive)
same,GI50,A498,> 100 µM (inactive)
same,GI50,DU-145,> 100 µM (inactive)
same,GI50,786-0,> 100 µM (inactive)
same,GI50,Malme-3M,> 100 µM (inactive)
same,GI50,MCF7,> 100 µM (inactive)
same,GI50,NCI-H460,> 100 µM (inactive)
same,GI50,OVCAR-4,> 100 µM (inactive)
same,GI50,SK-OV-3,> 100 µM (inactive)
same,GI50,SK-MEL-28,> 100 µM (inactive)
COc1ccc(C2=C(OC(=O)N(C)C)c3cccn3-c3cc(C(F)(F)F)ccc3S2)cc1,GI50,UACC-257,> 10 µM (inactive)
same,GI50,COLO 205,> 10 µM (inactive)
same,GI50,CAKI-1,> 10 µM (inactive)
same,GI50,T47D,3.47 µM (inactive)
same,GI50,SF-268,> 10 µM (inactive)
same,GI50,SK-MEL-5,> 10 µM (inactive)
same,GI50,HCT-15,> 10 µM
same,GI50,SF-295,> 10 µM (inactive)
same,GI50,HL-60,6.03 µM (inactive)
same,GI50,NCI-H23,8.81 µM (inactive)
same,GI50,PC-3,4.3 µM (inactive)
same,GI50,KM12,0.467 µM (active)
same,GI50,HT-29,> 10 µM (inactive)
same,GI50,CCRF-CEM,> 10 µM (inactive)
same,GI50,LOX IMVI,> 10 µM (inactive)
same,GI50,IGROV-1,> 10 µM (inactive)
same,GI50,SNB-75,> 10 µM (inactive)
same,GI50,OVCAR-8,> 10 µM (inactive)
same,GI50,MOLT-4,4.79 µM (inactive)
same,GI50,EKVX,> 10 µM (inactive)
same,GI50,K562,> 10 µM (inactive)
same,GI50,UACC-62,> 10 µM (inactive)
same,GI50,A549,> 10 µM (inactive)
same,GI50,HOP-62,> 10 µM (inactive)
same,GI50,SW-620,> 10 µM (inactive)
same,GI50,HCC 2998,> 10 µM (inactive)
same,GI50,RPMI-8226,3.75 µM (inactive)
same,GI50,SN12C,> 10 µM (inactive)
same,GI50,TK-10,> 10 µM (inactive)
same,GI50,M14,> 10 µM (inactive)
same,GI50,MDA-N,> 10 µM (inactive)
same,GI50,DU-145,> 10 µM (inactive)
same,GI50,786-0,> 10 µM (inactive)
same,GI50,Malme-3M,> 10 µM (inactive)
same,GI50,MCF7,9.29 µM (inactive)
same,GI50,SK-OV-3,> 10 µM (inactive)
same,GI50,SK-MEL-28,> 10 µM (inactive)
same,GI50,SR,4.99 µM (inactive)
